{"source": "patent US11137400B2", "about": "“Methods for predicting and determining responsiveness to activators of JNK kinase” (UNIVERSITY OF PITTSBURGH-OF THE COMMONWEALTH SYSTEM OF …, priority 2017, dated 2021)", "key": {"hXBP1s [1]": {"tested_on": "hXBP1s", "assay": "ER stress time course in HEK293T cells, Western blot of hXBP1s", "format": "cell-based, human", "method": "(§1) hXBP1s plays an essential role in regulating BMSC support of MM cell growth. […] To test this hypothesis, the time-dependent protein expression patterns of hXBP1s and phosphorylated JNKs (p-JNKs) was determined in cells that were challenged with either a persistent or transient ER stress, induced by either thapsigargin (Thg) or dithiothrietol (DTT), respectively. […] The protein level of hXBP1s started to decline at 6-hrs, and the reduction continued till 12-hr, the end of Thg treatment. In contrast, Thg induced the phosphorylation of JNKs from 6 to 12-hrs of Thg treatment. This activation of JNKs coincided with the decrease in hXBP1s protein levels within the same time frame of Thg treatment (FIG. 1A).\nDTT is a reducing agent that disrupts oxidative protein folding in the ER. Since the effects of DTT are rapidly reversible, and DTT can be readily removed by washing, it was used to mimic intermittent ER stress on cells. HEK293T cells were treated with DTT for 30 minutes, then DTT was washed away, and the cells were harvested at various time points after DTT removal. […] In addition, the cells recovered and further increased hXBP is protein expression at 2- and 5-hr post DTT removal. This process coincided with a drastic reduction in JNKs' phosphorylation (FIG. 1B).\n(§2) Total cell lysates were prepared with RIPA buffer containing protease inhibitor cocktail and phosphatase inhibitor cocktails I/II (Sigma-Aldrich). After centrifugation, total cell lysates then were separated by 10% sodium dodecyl sulfate polyacrylamide gel electrophoresis and analyzed by immunoblot analysis as described previously. Signals were detected with ECL reagents (GE Healthcare Life Sciences). Semi-quantification of data was performed using Image J. For immunoprecipitation assay, Cells were washed with ice-cold PBS and lysed with lysis buffer (50 mM Tris-HCl, pH 7.5; 150 mM NaCl, 0.1% (wt/vol) Nondiet P40, 1 mM Ethylenediaminetetraacetic acid (EDTA); […]; protease inhibitor cocktail and phosphatase inhibitor cocktails I/II (Sigma-Aldrich). After overnight incubation with Anti-HA-agarose beads (Roche) or anti-hXBP1s antibody at 4° C. on a rotator, following by addition of Protein G Agarose to the reaction containing anti-hXBP1s antibody for 2 h at 4° C. Immunoprecipitates were washed three times with cold lysis buffer and boiled for 5 min in 2× Laemmli buffer for elution of immunoprecipitated HA-hXBP1s or Flag-hXBP1s complex. Samples were resolved in SDS-PAGE (Bio-Rad) and immunoblotted with corresponding antibody."}, "p-JNKs": {"tested_on": "p-JNKs", "assay": "ER stress time course in HEK293T cells, Western blot of phosphorylated JNKs", "format": "cell-based, human", "conditions": "30-minute treatment", "method": "as §1\nDTT is a reducing agent that disrupts oxidative protein folding in the ER. Since the effects of DTT are rapidly reversible, and DTT can be readily removed by washing, it was used to mimic intermittent ER stress on cells. […]\n(§3) Total cell lysates were prepared with RIPA buffer containing protease inhibitor cocktail and phosphatase inhibitor cocktails I/II (Sigma-Aldrich). After centrifugation, total cell lysates then were separated by 10% sodium dodecyl sulfate polyacrylamide gel electrophoresis and analyzed by immunoblot analysis as described previously. Signals were detected with ECL reagents (GE Healthcare Life Sciences). […]"}, "FLAG-hXBP1s [2]": {"tested_on": "FLAG-hXBP1s", "assay": "Western blot of FLAG-hXBP1s (WT or S288A) in stably overexpressing KM101 cells", "format": "cell-based, human", "conditions": "for effect of pretreatment on anisomycin-induced repression of FLAG-hXBP1s protein level: then stimulated with anisomycin; for effect on steady-state protein level of hXBP1s S288A mutant: S288A mutant expressing KM101 cells", "method": "as §2"}, "hXbp1s mRNA": {"tested_on": "hXbp1s mRNA", "assay": "Real-time PCR of hXbp1s mRNA in FLAG-hXBP1s-overexpressing KM101 cells", "format": "cell-based, human", "method": "Real-time PCR was performed as described previously. B-Actin was used as an internal control."}, "[3]": {"tested_on": "HA-hXBP1s / MYC-β-TrCP binding", "assay": "Co-immunoprecipitation of HA-hXBP1s with MYC-β-TrCP in HEK293T cells", "format": "cell-based, human", "conditions": "10 nM JNKi for 4 hrs (FIG. 2F)", "method": "as §2"}, "VCAM-1": {"tested_on": "VCAM-1", "assay": "TNFα-induced VCAM-1 protein expression in KM101 cells, Western blot", "format": "cell-based, human", "conditions": "for TNFα-induced VCAM-1 protein expression: KM101 cells expressing (WT) hXBP1s", "method": "as §2"}, "5-TGM cells": {"tested_on": "5-TGM cells", "assay": "Adhesion of 5-TGM cells to TNFα-treated KM101 cells", "format": "cell-based, mouse", "method": "Human kidney […], human BM stromal cell lines KM101 cells, mouse MM cell line 5-TGM1, human MM cell lines ANBL-6 and MM1.S were cultured as described. Mouse macrophage cell line RAW264.7 were cultured in DMEM supplemented with 10% FBS. Isolation of primary hBMSCs was performed as described. These studies were approved by the University of Pittsburgh institutional review board and by the VA Pittsburgh Healthcare System institutional animal care and use committee. MM cell growth assay, cell adhesion assays, OCL formation assay were performed as described (Xu et al., Blood, 119:4205-4214 (2012))."}, "IL-6": {"tested_on": "IL-6", "assay": "TNFα-induced IL-6 production in KM101 cells, ELISA", "format": "cell-based, human", "method": "To determine hIL-6 secretion by BMSCs, supernatants from cell cultures were collected and analyzed with hIL-6 ELISA read-set go kits (eBioscience) according to the manufacturer's instructions, the mice's serum concentration of IgG2b, RANKL, IL-6 and CTX-I were measured with their respectively ELISA kit (Quidel, Roche, Roche and MyBioSource)."}, "hXBP1s [4]": {"tested_on": "hXBP1s", "assay": "Western blot of steady-state hXBP1s protein (endogenous and overexpressed) in HEK293T and KM101 cells", "format": "cell-based, human", "method": "as §2"}, "FLAG-hXBP1s [5]": {"tested_on": "FLAG-hXBP1s", "assay": "Western blot of FLAG-hXBP1s in HEK293T cells co-transfected with MYC-β-TrCP and MKK7-JNKs", "format": "cell-based, human", "conditions": "pretreatment of HEK293T cells", "from_the_text": "Since JNKs repress hXBP1s protein expression, it was hypothesized that JNKs promote its β-TrCP binding and consequent degradation via the UPS-26S proteasome machinery. […] To determine the functional consequence of JNKs' potentiation of the physical interactions between MYC-β-TrCP and HA-hXBP1s. FLAG-XBP1s was overexpressed with a small/moderate amount of MYC-β-TrCP either in the presence or absence of MKK7-JNKs. […] Further, JNKs and MYC-β-TrCP's inhibition of FLAG-hXBP1s was abolished by pretreatment of cells with MG 132 (FIG. 2G). Consistent with the latter observation. […] Taking these observations together, it was concluded that JNKs promote the physical interactions between hXBP1s and D-TrCP, leading to the ubiquitination and consequent protein degradation of hXBP1s that results in a decrease in the steady-state levels of hXBP1s.\nas §3"}}, "note": "“Also recorded” adds a separate entry of the source. Where a SMILES comes first, the peptide text is derived from it. The star is where a group is joined. Cbz = O=C(OCc1ccccc1)*", "data": [{"smiles": "O[C@H](CS)[C@H](O)CS", "note": "(racemic) [DTT, dithiothreitol]", "values": [{"measurement": "basal hXBP1s protein expression", "setting": "hXBP1s [1]; 30-minute treatment", "result": "quickly diminished"}, {"measurement": "phosphorylation of JNKs", "setting": "p-JNKs", "result": "strongly induced"}]}, {"smiles": "CCOc1nc(NC(=O)Cc2cc(OC)ccc2OC)cc(N)c1C#N", "note": "[JNKi VIII]", "values": [{"measurement": "steady-state protein level of overexpressed (WT) FLAG-hXBP1s", "setting": "FLAG-hXBP1s [2]; KM101 cells", "result": "dose-dependent up-regulation"}, {"measurement": "effect of pretreatment on anisomycin-induced repression of FLAG-hXBP1s protein level", "setting": "FLAG-hXBP1s [2]; KM101 cells", "result": "largely prevented"}, {"measurement": "steady-state protein level of overexpressed (WT) FLAG-hXBP1s", "setting": "FLAG-hXBP1s [2]; KM101 cells, listed as JNKi", "result": "dose-dependently increased"}, {"measurement": "effect on steady-state protein level of hXBP1s S288A mutant", "setting": "FLAG-hXBP1s [2]", "result": "completely abolished"}, {"measurement": "mRNA expression of hXbp1s", "setting": "hXbp1s mRNA", "result": "no effect"}, {"measurement": "basal level binding of HA-hXBP1s with MYC-β-TrCP", "setting": "[3]", "result": "abolished"}, {"measurement": "TNFα-induced VCAM-1 protein expression", "setting": "VCAM-1", "result": "potentiated"}, {"measurement": "ANS inhibition of TNFα-induced VCAM-1 expression in presence of the substance", "setting": "VCAM-1; KM101 cells, with ANS", "result": "compromised"}, {"measurement": "TNFα-induced stromal support of adhesion of 5-TGM cells", "setting": "5-TGM cells", "result": "potentiated"}, {"measurement": "TNFα-induced stromal production of IL-6", "setting": "IL-6", "result": "potentiated"}]}, {"smiles": "CC(C)C[C@@H](C=O)NC(=O)[C@H](CC(C)C)NC(=O)[C@H](CC(C)C)NC(=O)OCc1ccccc1", "note": "[MG132] (Cbz-Leu-Leu-Leu-aldehyde)", "values": [{"measurement": "steady-state level of both endogenous and overexpressed hXBP1s", "setting": "hXBP1s [4]", "result": "promptly and greatly elevated"}, {"measurement": "discrepancy in protein expression of S288A mutant and WT hXBP1s", "setting": "FLAG-hXBP1s [2]; KM101 cells", "result": "abolished"}, {"measurement": "effect of pretreatment on anisomycin-induced repression of FLAG-hXBP1s protein level", "setting": "FLAG-hXBP1s [2]; KM101 cells", "result": "completely blocked"}, {"measurement": "JNKs and MYC-β-TrCP's inhibition of FLAG-hXBP1s", "setting": "FLAG-hXBP1s [5]", "result": "abolished"}]}, {"smiles": "O=S(=O)(N=Cc1c(O)ccc2ccccc12)c1cccs1", "note": "[STF-083010]", "values": [{"measurement": "TNFα-induced VCAM-1 protein expression", "setting": "VCAM-1", "result": "repressed"}, {"measurement": "JNKi's promotion of TNFα-induced stromal induction of VCAM-1", "setting": "VCAM-1; KM101 cells, with JNKi", "result": "compromised"}, {"measurement": "TNFα-induced stromal support of adhesion of 5-TGM cells", "setting": "5-TGM cells", "result": "repressed"}, {"measurement": "JNKi's promotion of stromal support to 5-TGM cells' adhesion", "setting": "5-TGM cells; with JNKi", "result": "compromised"}, {"measurement": "TNFα-induced stromal production of IL-6", "setting": "IL-6", "result": "repressed"}, {"measurement": "JNKi's promotion of stromal production of IL-6", "setting": "IL-6; with JNKi", "result": "compromised"}]}, {"smiles": "C/C=C(/C)C(=O)O[C@H]1C(C)=C2[C@H]([C@@H]1OC(=O)CCCCCCC)[C@@](C)(OC(C)=O)C[C@H](OC(=O)CCC)[C@@]1(O)[C@H]2OC(=O)[C@@]1(C)O", "note": "[Thg, thapsigargin]", "values": [{"measurement": "time at which endogenous hXBP1s peaked", "setting": "hXBP1s [1]", "result": 4, "unit": "h"}, {"measurement": "time at which up-regulation of endogenous hXBP1s was first detected", "setting": "hXBP1s [1]", "result": 2, "unit": "h"}, {"measurement": "time at which hXBP1s protein level started to decline", "setting": "hXBP1s [1]; reduction continued till 12-hr", "result": 6, "unit": "h"}, {"measurement": "protein expression of endogenous hXBP1s during persistent ER stress", "setting": "hXBP1s [1]; treatment up to 12-hr", "result": "time-dependent up-regulation"}]}, {"smiles": "COc1ccc(C[C@H]2NC[C@H](O)[C@H]2OC(C)=O)cc1", "note": "[anisomycin]", "values": [{"measurement": "steady-state protein level of overexpressed (WT) FLAG-hXBP1s", "setting": "FLAG-hXBP1s [2]; KM101 cells", "result": "drastically decreased; also recorded: greatly reduced"}, {"measurement": "effect on steady-state protein level of hXBP1s S288A mutant", "setting": "FLAG-hXBP1s [2]", "result": "completely lost its inhibitory effect"}, {"measurement": "mRNA expression of hXbp1s", "setting": "hXbp1s mRNA", "result": "no effect"}, {"measurement": "TNFα-induced VCAM-1 protein expression", "setting": "VCAM-1; listed as ANS", "result": "dose-dependently repressed; also recorded: dose-dependently blocked"}, {"measurement": "inhibitory effect on TNFα-induced VCAM-1 protein expression in S288A mutant cells", "setting": "VCAM-1; S288A mutant-overexpressing KM101 cells", "result": "largely abolished"}]}]}
